# Key:
# MIN6 cells = test: Insulinotropic activity: insulin secretion from MIN6 cells (ELISA based assay); format: cell-based, mouse; details: for Insulin Secretion: standard error in bracket
# Method: Insulinotropic activity of the NDS100178 and NDS100179 was measured by a well-optimized ELISA based Assay (Shantani Protocol #5205) described below.
# Materials • MIN6Cell (source: National Center for Cell Sciences, Pune) • Mouse Insulin ELISA kit (Mercodia, 10-1247-01) • Plate Shaker (MixMatefromEppendorf) • HEPES Balanced Krebs-Ringer bicarbonate buffer (components as follows)
# Method • i. Seed proliferating culture of MIN-6 cells into a 6 well plate with almost half the confluency two days before the experiment. • ii. One the day of Insulin induction experiment, the cells should become almost confluent and are in good condition. • iii. On the day of experiment, first prepare 1×KRB-HEPES buffer with 0.1% BSA (for rinse) and without BSA (for equilibration and insulin induction) as described in the materials. • iv. Prepare equilibration buffer: 1×KRB-HEPES buffer without BSA containing 3.3 mM glucose (to bring down the glucose level of all cells to the same level). For example, add 66 ul 1 M glucose stock solution to 20 ml KRB-HEPES buffer without BSA. • v. Prepare the stimulating buffer (insulin induction): 1×KRB-HEPES buffer without BSA containing the defined glucose level (in most cases, it will be 16.7 mM glucose) and the desired concentration of molecule. • vi. Pre warm all the buffers to 37° C. in the water bath (at 15 minutes). • vii. Remove media from all wells, rinse each well twice with 2 ml KRB-HEPES buffer containing 0.1% BSA. • viii. Add 2 ml of equilibration buffer in each well and incubate at 37° C. for half an hour. • ix. After the incubation add 2 ml of stimulating buffer in respective wells (properly labelled) and incubate 37° C. for 1 hour. • x. In the meanwhile, turn on the refrigerated centrifuge and set the temperature to 4° C. Take out enzyme conjugate, diluent buffer, Calibrator 0 and stripes needed (for example, two stripes for 8 samples to be run in duplicate) from Mercodia ELISA kit box (store at 4° C.) and warm up them to RT. • xi. […] Centrifuge the tubes at 600 g for 5 min. • xiii. Take out 500 ul in fresh properly labelled precooled tubes. • xiv. Now dilute the samples 1:30 in calibrator 0 i.e. add 3 ul of each sample to 87 ul of Calibrator 0 in 8 different properly labelled 0.5 ml tubes. Mix them well. • xv. Prepare 1× enzyme conjugate buffer, i.e. mix 180 ul enzyme (11×) with 1800 ul diluent buffer for ELISA of two stripes. • xvi. Add 10 ul of each sample (diluted, in duplicate) in the two adjacent wells. Be careful not to touch the bottom. • xvii. Carefully add 100 ul of Enzyme Conjugate buffer (1×) to each well and incubate on a plate shaker (eppendorf MixMate) at 800 rpm for 2 hours at 25° C. • xviii. 45 min before the incubation is over take out wash buffer, substrate TMB and Stop solution. Keep them at RT. • xix. 5 min before the incubation is over prepare 1× wash buffer (21×), i.e. 40 ml distilled water+2 ml (21×) wash buffer in a reservoir. • xx. After the incubation is over, wash each well 7 times with 350 ul wash buffer. Use a multichannel (175 ul). • xxi. After the washing add 200 uL substrate TMB solution in each well. Maintain a proper pace. • xxii. Allow to incubate for 15 min. Set the program on the plate reader, to take absorbance read at 450 nm. Add a 5 sec shake step to allow proper mixing. • xxiii. After incubation immediately add 50 ul Stop solution in each well at same pace and take absorbance read at 450 nm.
# Assay conditions were kept same in all the assays. The difference in absorption-value for control experiment (no treatment with molecule) over different days is attributed to cell culture conditions. Other varying conditions are specified in the respective graphs.
# [Note: If not mentioned specifically, HG=High Glucose (16.7 mM), LG=Low Glucose (3.3 mM)]
# C57BL/6J mice [1] = test: Oral glucose tolerance test, glucose reduction in non-diabetic C57BL/6J mice; format: in vivo; details: fasted male C57BL/6J mice, oral dose with 3 g/kg glucose, 0-120 minutes
# Method: 12-13 weeks male C57BL/6J mice were fasted overnight. In the morning animals were orally dosed with different concentrations of NDS100179 or control vehicle along with 3 g/kg of glucose. Blood glucose was measured just before the dose and then 30, 60 90 and 120 minutes after the compound dose.
# C57BL/6J mice [2] = test: Insulin increase / GSIS in C57BL/6J mice; format: in vivo
# Method: Insulin at 0 and 15 minutes time points was also measured in the studies conducted above where 12-13 weeks male C57BL/6J mice were fasted overnight and in the morning orally dosed with different concentrations of NDS100179 or control vehicle along with 3 g/kg of glucose.
# (§1) NDS100179 induced insulin measurements at low and high glucose condition were carried out in Human Islets, Mice and MIN6 cells.
# Human Islets = test: GSIS enhancement in human islets; format: cell-based; details: low and high glucose
# Method: as §1
# db/db mice = test: 30 day oral treatment of db/db mice (fasted glucose, OGTT, beta-cell function, triglyceride, body weight); format: in vivo
# Method: db/db or leptin null mice are well accepted model of diabetes. 7 week old db/db mice were dosed orally with 10 mg/kg, 30 mg/kg of NDS100179 and vehicle alone for 30 days. Fasted plasma glucose levels in the animals were measured before the start of the study, at day 15 and day 30.
# 7 week db/db mice were dosed orally with 10 mg/kg, 30 mg/kg of NDS100179 and vehicle alone for 30 days. Beta-cell functionality was assessed using HOMA-beta % calculations at the end of 30 days.
# 7 week db/db mice were dosed orally with 10 mg/kg, 30 mg/kg of NDS100179 and vehicle alone for 30 days. Triglyceride levels were measured at the end of 30 days.
# 7 week db/db mice were dosed orally with 10 mg/kg, 30 mg/kg of NDS100179 and vehicle alone for 30 days. Animal body weight was measured every third day.
# Pharmacokinetics in mice = format: in vivo
# Description: Based on the pharmacokinetics studies performed in Mice NDS100179 is 100% orally bioavailable compound (FIG. 9).
# Kinetic solubility = format: physicochemical
# CYP3A4 = CYP3A4 (Homo sapiens, UniProt P08684); test: CYP3A4 inhibition; format: in vitro ADME
# CYP3A4, sequence (P08684 whole entry): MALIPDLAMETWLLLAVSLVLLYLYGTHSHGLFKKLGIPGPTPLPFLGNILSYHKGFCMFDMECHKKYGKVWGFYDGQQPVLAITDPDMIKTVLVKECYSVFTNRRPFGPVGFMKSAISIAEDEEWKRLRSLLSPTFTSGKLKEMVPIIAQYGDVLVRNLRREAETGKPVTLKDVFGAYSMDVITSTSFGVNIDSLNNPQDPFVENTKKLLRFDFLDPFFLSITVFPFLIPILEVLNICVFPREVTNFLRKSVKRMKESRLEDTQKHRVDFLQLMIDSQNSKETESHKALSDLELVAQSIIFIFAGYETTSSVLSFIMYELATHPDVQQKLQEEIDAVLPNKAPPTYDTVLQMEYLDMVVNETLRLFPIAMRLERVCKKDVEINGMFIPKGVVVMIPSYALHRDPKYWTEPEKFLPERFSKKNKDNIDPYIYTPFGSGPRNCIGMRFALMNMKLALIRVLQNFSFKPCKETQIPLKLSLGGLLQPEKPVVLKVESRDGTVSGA
# [3] = Metabolic study and intrinsic clearance in MLM; format: in vitro ADME
# Metabolic study in HLM = format: in vitro ADME
# HepG2 cells = test: Glucose uptake (2-NBDG) in insulin resistant HepG2 cells; format: cell-based; details: 24 hours with drug, 2-NBDG 15 min
# Method: The assay was performed after making the HepG2 cells insulin resistant by culturing them in high glucose condition with respective drugs for 24 hours. The assay was performed after 24 hours by allowing the cells to starve for 2 hrs in serum free media (containing respective drug) followed by 30 min incubation in KRB buffer (with respective drugs) and lastly incubating with 2-NBDG (fluorescent glucose analgoue) for 15 min. The cells were thoroughly washed and lysed with 1% triton-X. The fluorescence reading was immediately taken at Ex:465 and […].
# [4] = oral 10 mg/kg, 30 mg/kg, end of 30 days
substance,measurement,setting,value
"5-Chloro-3-(4,5-dihydro-1H-imidazol-2-yl)-1-methyl-3a,7a-dihydro-1H-indazole [NDS100179]",insulin secretion from MIN6 cells in high glucose conditions,"MIN6 cells; 33 uM, 1 hour, high glucose (16.7 mM), three different days",significant increase in the insulin secretion
same,insulin secretion over control,"MIN6 cells; MIN6 cells, 10 nM",not found to be statistically significant
same,insulin secretion over control,"MIN6 cells; MIN6 cells, 50 nM",active insulinotrope
same,insulin secretion over control,"MIN6 cells; MIN6 cells, 100 nM",active insulinotrope
same,Insulin Secretion,"MIN6 cells; MIN6 cells, compound 0.1 μM",5.55 (1.0) ng/ml
same,Insulin Secretion,"MIN6 cells; MIN6 cells, compound 1.0 μM",10.27 (0.6) ng/ml
same,Insulin Secretion,"MIN6 cells; MIN6 cells, compound 10.0 μM",15.45 (1.2) ng/ml
same,glucose dependence of insulinotropic activity,"MIN6 cells; MIN6 cells, high glucose vs lower glucose conditions",glucose dependent
same,GSIS enhancement,"MIN6 cells; MIN6 cells, low and high glucose",enhance insulin secretion only at high glucose concentration
same,blood glucose (oral glucose tolerance test),C57BL/6J mice [1],dose dependently reduce the blood glucose
same,GSIS enhancement,"C57BL/6J mice [2]; Mice, low and high glucose",enhance insulin secretion only at high glucose concentration
same,insulin secretion in mice,"C57BL/6J mice [2]; fasted male C57BL/6J mice, oral dose with 3 g/kg glucose, 0 and 15 minutes",blood plasma concentration glucose dependent
same,GSIS enhancement,Human Islets,enhance insulin secretion only at high glucose concentration
same,glucose tolerance (OGTT),db/db mice; at the end of 30 days of oral treatment,significant improvement in glucose tolerance
same,fasted plasma glucose (basal glucose level),"db/db mice; oral 10 mg/kg and 30 mg/kg for 30 days, day 0, 15, 30",significant control in rise of basal glucose level
same,body weight,"db/db mice; oral 10 mg/kg, 30 mg/kg for 30 days, measured every third day",No significant change in body weight
same,beta-cell function (HOMA-beta %),db/db mice; [4],significant improvements in beta-cell functions
same,triglyceride levels,db/db mice; [4],significant reduction in triglyceride levels
same,rise in fasted blood glucose levels,db/db mice; oral 30 mg/kg for 30 days,no statistically significant rise
same,AUC(0-t),Pharmacokinetics in mice,837.113 ng·h/mL
same,AUC(inf),Pharmacokinetics in mice,854.231 ng·h/mL
same,AUC(inf)/AUC(0-t) %,Pharmacokinetics in mice,102.049%
same,Cmax,Pharmacokinetics in mice,631.1 ng/mL
same,Tmax,Pharmacokinetics in mice,15 min
same,oral bioavailability,Pharmacokinetics in mice,100%
same,t½,Pharmacokinetics in mice,102 min
same,solubility kinetic,Kinetic solubility,205.27 µM
same,CYP3A4 Inhibition,CYP3A4,No inhibition
same,Intrinsic Clearnace MLM,[3],63.7 μl/min/mg of protein
same,Metabolic Study MLM Mean % PCR*,[3],39.25%
same,Metabolic Study HLM Mean % PCR*,Metabolic study in HLM,80.11%
same,glucose uptake in HepG2 cells,HepG2 cells,increase glucose uptake
